Measurements reported in patent US9481637B2, “Compounds for the treatment of seizures and other central nervous systems disorders and conditions” (Ketogen Inc., priority 2014, dated 2016).

How the values were obtained:
Type in all cases: in vivo
[1] = test system: 6 Hz-induced psychomotor seizures in CD-1 mice; assay: 6 Hz psychomotor seizure test; settings: for mice protected from psychomotor seizure / incidence of psychomotor seizures: 1 h pretreatment; for incidence of psychomotor seizures: vs Vehicle
Text: Male, experimentally naive CD-1 mice were used in these experiments. At a defined time following drug or vehicle pretreatment, all mice received an electrical stimulus (6 Hz, 0.2 ms pulse width, 3 s duration, 32 mA) via corneal electrodes moistened with saline (ECT unit 57800; Ugo Basile). Preliminary experiments established that these stimulus parameters elicited a psychomotor seizure, defined as the expression of at least one of the following behaviors: stun/immobility, forelimb clonus, straub tail, lateral head movement, in >95% of control animals. Protection was defined as complete absence of all the above behaviors within 20 s of stimulus delivery. The effective dose of compound necessary to protect against psychomotor seizures to 50% of controls (i.e. ED50) was determined by curve fitting program.
(§1) Male mice (body wt. 20-40 g) were used for all studies. Mice were used in one of the following 4 seizure tests: maximal electroshock seizure (MES) test, subcutaneous injection of pentylenetetrazol (scPTZ) test, seizures induced by 6 Hz stimulation (6 Hz), and corneal kindled seizures. These tests were selected because no single test detects all known anti-epileptic drugs (AED's), but all currently known AED's are detected as active (i.e. prevent seizures) in at least one of these tests. Subjects were tested in one of the 4 seizure tests following a defined time after treatment with either test drug or vehicle control. Following administration of test drug or vehicle by either the oral, subcutaneous or intraperitoneal route, the animals were tested according to one of the methods outlined below (1-4). Typically the pretreatment time was 60 minutes although in some cases this varied from 30 min to 4 h.
3. 6 Hz Psychomotor Seizure Test:
Male CD-1 mice received an electrical stimulus (6 Hz, 0.2 ms pulse width, 3 s duration, 32 mA) via corneal electrodes moistened with saline (ECT unit 57800; Ugo Basile). These stimulus parameters should elicit a psychomotor seizure, defined as the expression of at least one of the following behaviours: stun/immobility, forelimb clonus, straub tail, vibrissae tremor, lateral head movement, in >95% of control animals within 30 s of stimulus delivery. To establish drug efficacy, test drug or vehicle was administered at a defined timepoint prior to the 6 Hz test, to separate experimental groups. The effect of treatment on subsequent seizure was noted. Protection is defined as complete absence of all the above behaviours within 20 s of stimulus delivery. The experiment was terminated immediately once the endpoint was met.

[2] = test system: MES-induced tonic seizures in CD-1 mice; assay: Maximal electroshock test (MES test)
Text: as §1
1. Maximal Electroshock Test (MES Test):
Male CD-1 mice received a maximal electroshock (45 mA, 0.2 s duration, 60 Hz) via corneal electrodes moistened with saline (shock stimulator type 221; Harvard apparatus). This stimulus intensity should elicit a full tonic seizure in >95% of control animals. Protection is defined as absence of a full tonic seizure within 15 s of stimulus delivery. To establish drug efficacy, test drug or vehicle was administered at a defined timepoint prior to the MES test, to separate experimental groups. The experiment was terminated immediately once the endpoint was met.

[3] = test system: scPTZ-induced seizures in CD-1 mice; assay: s.c. pentylenetetrazol seizure test (scPTZ test)
Text: as §1
2. s.c. Pentylenetetrazol Seizure Test (PTZ Test):
Male CD-1 mice received a single subcutaneous injection of pentylenetetrazol (PTZ: 85 mg/kg). This dose of PTZ should elicit a clonic seizure in >95% of control animals. Following PTZ injection, the animals were immediately transferred to single observation cages and observed continuously for 30 min. To establish drug efficacy, test drug or vehicle was administered at a defined timepoint prior to the PTZ administration, to separate experimental groups. The effect of treatment on subsequent seizure was noted. Protection is defined as complete absence of a clonic seizure, including a forelimb clonus, over the 30 min observation period. In the event of a seizure, the onset latency from PTZ injection was recorded. The experiment was terminated immediately once the endpoint was met, or in the case of protection, at the completion of the 30 min test period.

[4] = test system: corneal kindled seizures in CD-1 mice; assay: Mouse corneal kindling; settings: 75 and 300 mg/kg; IP and oral routes
Text: as §1
4. Mouse Corneal Kindling:
Male CD-1 mice (body wt. 20-40 g) were used for these studies. There are 3 phases to the procedure: (1) kindling development phase, (2) kindling stability/persistence phase, and (3) drug testing phase.
1. […]
Drug testing was conducted using a repeated measures design with mice receiving up to 4 doses of a test drug and control treatments in a counterbalanced sequence. […] For each stimulation, the kindling score was assessed according to the Racine (1972) rating scale. […]

[5] = 75-600 mg/kg IP and oral routes
[6] = 37.5-600 mg/kg IP and oral routes
[7] = 150, 300 and 600 mg/kg IP and 600 mg/kg oral

| Compound | incidence of psychomotor seizures [1, 5] | mice protected from psychomotor seizure ([1]; 300-600 mg/kg IP) | 6 Hz EC50 (mg/kg) ([1]; Dose route IP) | 6 Hz EC50 (mmol/kg) ([1]; Dose route IP) | 6 Hz EC50 (mg/kg) ([1]; Dose route PO) | 6 Hz EC50 (mmol/kg) ([1]; Dose route PO) | MES EC50 (mg/kg) ([2]; Dose route IP) | MES EC50 (mmol/kg) ([2]; Dose route IP) | MES EC50 (mg/kg) ([2]; Dose route PO) | MES EC50 (mmol/kg) ([2]; Dose route PO) | ScPTZ EC50 (mg/kg) ([3]; Dose route IP) | ScPTZ EC50 (mmol/kg) ([3]; Dose route IP) | ScPTZ EC50 (mg/kg) ([3]; Dose route PO) | ScPTZ EC50 (mmol/kg) ([3]; Dose route PO) | other results |
| --- | --- | --- | --- | --- | --- | --- | --- | --- | --- | --- | --- | --- | --- | --- | --- |
| CCCCCCCCC(=O)NCC1(CC(=O)O)CCCCC1 [compound 4, 2-(1-(nonanamidomethyl)cyclohexyl)acetic acid] |  |  |  |  |  |  |  |  |  |  |  |  |  |  | mice protected from psychomotor seizure ([1]; 600 mg/kg IP): all mice; mice protected from psychomotor seizure ([1]; 600 mg/kg oral): No mice; incidence of psychomotor seizures ([1]; 150-600 mg/kg IP): dose-related decrease in the incidence of seizures |
| CCCCCCCCCC(=O)NC[C@H](CC(=O)O)CC(C)C [compound 14, (S)-3-(decanamidomethyl)-5-methylhexanoic acid] | dose-related decrease in the incidence of seizures | all mice |  |  |  |  |  |  |  |  |  |  |  |  |  |
| CCCCCCCC(=O)NC(=O)[C@H](CC)N1CCCC1=O [compound 20, (S)—N-(2-(2-oxopyrrolidin-1-yl)butanoyl)octanamide] |  |  | 90 | 0.3 | 130 | 0.44 | >600 | >2.02 | >600 | >2.02 | >600 | >2.02 | >600 | >2.02 | 6 Hz-induced seizures vs vehicle control (FIG. 8) ([1]; 75, 150, 300 or 600 mg/kg 1 hr pre-stimulation, 300 mg/kg at 2 and 4 hr, oral or IP): reduced seizures; MES-induced tonic seizures vs vehicle control (FIG. 7) ([2]; 600 mg/kg IP): reduced seizures; scPTZ-induced seizures vs vehicle control (FIG. 9) ([3]; 300 and 600 mg/kg IP): reduced seizures; corneal kindled seizures (Racine kindling score) vs vehicle control (FIG. 10) [4]: reduced seizures |
| CCCCCCCCC(=O)NC(=O)[C@H](CC)N1CCCC1=O [compound 21, (S)—N-(2-(2-oxopyrrolidin-1-yl)butanoyl)nonanamide] | dose-related decrease in the incidence of seizures | all mice |  |  |  |  |  |  |  |  |  |  |  |  |  |
| CCCCCCCCCC(=O)NC(=O)[C@H](CC)N1CCCC1=O [compound 22, (S)—N-(2-(2-oxopyrrolidin-1-yl)butanoyl)decanamide] | dose-related decrease in the incidence of seizures |  |  |  |  |  |  |  |  |  |  |  |  |  | mice protected from psychomotor seizure ([1]; 600 mg/kg IP): all mice |
| CCCCC(CC)CCC(=O)NC(=O)[C@H](CC)N1CCCC1=O (stereo partly drawn) [compound 25, 4-ethyl-N—((S)-2-(2-oxopyrrolidin-1-yl)butanoyl)octanamide] |  | all mice | 46 | 0.14 | 50 | 0.15 | 397 | 1.22 | >600 | >1.85 | 310 | 0.95 | 600 | 1.85 | incidence of psychomotor seizures [1, 6]: dose-related decrease in the incidence of seizures; MES-induced tonic seizures vs vehicle control (FIG. 11) [2, 7]: reduced seizures; scPTZ-induced seizures (incidence, onset latency) vs vehicle control (FIGS. 12-13) [3, 7]: reduced seizures |
| CCCCC1CCC(C(=O)NC(=O)[C@H](CC)N2CCCC2=O)CC1 (stereo partly drawn) [compound 26, (S)-4-butyl-N-(2-(2-oxopyrrolidin-1-yl)butanoyl)cyclohexane-1-carboxamide] |  | all mice | 80 | 0.24 | 88 | 0.26 | >600 | >1.78 | >600 | >1.78 | 230 | 0.68 | 300 | 0.89 | incidence of psychomotor seizures [1, 6]: dose-related decrease in the incidence of seizures; MES-induced tonic seizures vs vehicle control (FIG. 14) ([2]; 300 and 600 mg/kg IP and 600 mg/kg oral): reduced seizures; scPTZ-induced seizures (incidence, onset latency) vs vehicle control (FIGS. 15-16) [3, 7]: reduced seizures |
